Test results from patent publication US8802674B2, “Aminopyrimidine derivatives as LRRK2 modulators” (Genentech, Inc., priority 2011, dated 2014).
pKi: −log10 of the molar value.

Target: LRRK2 (Homo sapiens (Human), UniProt Q5S007, G2019S)
Test: In Vitro LRRK2 LabChip Assay
Type: biochemical
Procedure, shortened: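 Phosphorylated and unphosphorylated peptides were separated by capillary electrophoresis and quantified by fluorescence. Ki came from a tight-binding equation, given in μM.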

Chain of LRRK2 (Q5S007 970-2527 G2019S limits assumed): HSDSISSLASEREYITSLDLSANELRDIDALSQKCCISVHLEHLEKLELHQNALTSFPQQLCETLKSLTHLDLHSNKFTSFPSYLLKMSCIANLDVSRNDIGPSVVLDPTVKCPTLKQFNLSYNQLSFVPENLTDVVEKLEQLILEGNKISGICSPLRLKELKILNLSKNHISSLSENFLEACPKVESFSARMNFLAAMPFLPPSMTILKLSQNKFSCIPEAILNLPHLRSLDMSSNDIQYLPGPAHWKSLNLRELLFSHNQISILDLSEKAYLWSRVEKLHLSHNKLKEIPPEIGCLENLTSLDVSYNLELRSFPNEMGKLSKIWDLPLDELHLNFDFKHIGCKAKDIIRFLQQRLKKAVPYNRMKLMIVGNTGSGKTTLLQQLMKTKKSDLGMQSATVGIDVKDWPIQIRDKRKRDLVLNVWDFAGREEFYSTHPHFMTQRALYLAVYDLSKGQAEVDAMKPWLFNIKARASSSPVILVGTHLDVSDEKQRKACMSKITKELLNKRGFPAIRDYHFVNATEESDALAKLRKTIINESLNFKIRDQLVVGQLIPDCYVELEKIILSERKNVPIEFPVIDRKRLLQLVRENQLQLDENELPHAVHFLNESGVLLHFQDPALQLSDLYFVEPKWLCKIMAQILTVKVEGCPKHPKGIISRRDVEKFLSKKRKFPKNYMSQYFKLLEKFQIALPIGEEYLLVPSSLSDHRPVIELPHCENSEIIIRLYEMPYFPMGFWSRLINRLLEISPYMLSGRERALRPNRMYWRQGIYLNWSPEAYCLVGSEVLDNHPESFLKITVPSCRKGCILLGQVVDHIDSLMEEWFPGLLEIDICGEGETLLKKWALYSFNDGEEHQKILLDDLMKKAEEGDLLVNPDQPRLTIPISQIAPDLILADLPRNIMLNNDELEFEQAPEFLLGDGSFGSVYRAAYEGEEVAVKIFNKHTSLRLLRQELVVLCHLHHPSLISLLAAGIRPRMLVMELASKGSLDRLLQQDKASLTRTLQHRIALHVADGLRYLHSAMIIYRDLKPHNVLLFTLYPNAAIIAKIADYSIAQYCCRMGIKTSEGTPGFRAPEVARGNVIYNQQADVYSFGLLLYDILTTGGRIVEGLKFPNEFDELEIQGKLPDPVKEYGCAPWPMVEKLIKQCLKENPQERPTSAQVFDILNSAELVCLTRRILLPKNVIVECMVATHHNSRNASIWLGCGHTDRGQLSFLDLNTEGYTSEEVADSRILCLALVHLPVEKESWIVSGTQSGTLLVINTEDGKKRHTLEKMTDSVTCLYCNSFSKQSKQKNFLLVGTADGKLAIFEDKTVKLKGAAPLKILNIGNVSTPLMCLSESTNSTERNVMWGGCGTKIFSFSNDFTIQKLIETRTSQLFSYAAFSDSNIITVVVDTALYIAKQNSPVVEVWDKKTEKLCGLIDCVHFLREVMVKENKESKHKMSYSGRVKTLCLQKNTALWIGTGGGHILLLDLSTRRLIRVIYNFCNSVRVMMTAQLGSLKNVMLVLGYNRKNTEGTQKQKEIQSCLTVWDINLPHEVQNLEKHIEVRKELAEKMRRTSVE

| SMILES | pKi (Table 4) | further results |
| --- | --- | --- |
| CNc1nc(Nc2ccc(C(=O)N3CCOCC3)cc2OCC2CC2)ncc1C(F)(F)F [Example 285, [3-Cyclopropyl-methoxy-4-(4-methylamino-5-trifluoromethyl-pyrimidin-2-ylamino)-phenyl]-morpholin-4-yl-methanone] | – | pKi (Table 6): 8.19 |
| CNc1nc(Nc2cc(F)c(C(=O)N3CCC(C#N)C3)cc2OC)ncc1C(F)(F)F (stereo not drawn) [Example 178, l-[2-Fluoro-5-methoxy-4-(4-methylamino-5-trifluoromethyl-pyrimidin-2-ylamino)-benzoyl]-pyrrolidine-3-carbonitrile] | 8.74 | – |
| CNc1nc(Nc2cc(OC)c(C(=O)N3CCC(C#N)CC3)cc2Cl)ncc1Cl [Example 167, l-[5-Chloro-4-(5-chloro-4-methylamino-pyrimidin-2-ylamino)-2-methoxy-benzoyl]-piperidine-4-carbonitrile] | 8.48 | – |
| COc1cc(C(=O)N2CCOCC2)ccc1Nc1ncc(Cl)c(NCC2CCOC2)n1 (stereo not shown) [Example 93, (4-{5-Chloro-4-[(tetrahydro-furan-3-ylmethyl)-amino]-pyrimidin-2-ylamino}-3-methoxy-phenyl)-morpholin-4-yl-methanone] | 7.85 | – |
| CCNc1nc(Nc2cc(F)c(C(=O)N3CCOCC3)cc2OC)ncc1C#N [Example 316, 4-Ethylamino-2-[5-fluoro-2-methoxy-4-(morpholine-4-carbonyl)-phenylamino]-pyrimdine-5-carbonitrile] | – | pKi (Table 7): 8.19 |
| CNc1nc(Nc2ccc(C(=O)N3CCN(C(C)=O)CC3)cc2OC)ncc1Cl [Example 25, l-{4-[4-(5-Chloro-4-methylamino-pyrimidin-2-ylamino)-3-methoxy-benzoyl]-piperazin-1-yl}-ethanone] | 8.47 | – |
| CNc1nc(Nc2ccc(C(=O)N3CCOCC3)cc2C2CC2)ncc1C(F)(F)F [Example 289, [3-Cyclopropyl-4-(4-methylamino-5-trifluoromethyl-pyrimidin-2-ylamino)-phenyl]-morpholin-4-yl-methanone] | – | pKi (Table 6): 7.70 |
| CNc1nc(Nc2ccc(C(=O)N3CC(C)CC(C)C3)cc2OC)ncc1Cl (stereo not shown) [Example 11, [4-(5-Chloro-4-methylamino-pyrimidin-2-ylamino)-3-methoxy-phenyl]-(3,5-dimethyl-piperidin-1-yl)-methanone] | 8.21 | – |
| CNc1nc(Nc2ccc(C(=O)N3CCOCC3)cc2OC)ncc1C1CC1 [Example 103, [4-(5-Cyclopropyl-4-methylamino-pyrimidin-2-ylamino)-3-methoxy-phenyl]-morpholin-4-yl-methanone] | 7.05 | – |
| COc1cc(C(=O)N2CCOCC2)ccc1Nc1ncc(C(F)(F)F)c(OC)n1 [Example 263, [3-Methoxy-4-(4-methoxy-5-trifluoromethyl-pyrimidin-2-ylamino)-phenyl]-morpholin-4-yl-methanone] | – | pKi (Table 5): 7.70 |
| COCCOc1nc(Nc2ccc(C(=O)N3CCOCC3)cc2OC)ncc1Br [Example 139, {4-[5-Bromo-4-(2-methoxy-ethoxy)-pyrimidin-2-ylamino]-3-methoxy-phenyl}-morpholin-4-yl-methanone] | 8.24 | – |
| COc1cc(C(=O)N2CCOCC2)ccc1Nc1ncc(Cl)c(OC(C)C)n1 [Example 59, [4-(5-Chloro-4-isopropoxy-pyrimidin-2-ylamino)-3-methoxy-phenyl]-morpholin-4-yl-methanone] | 7.89 | – |
| CCNc1nc(Nc2cc(F)c(C(=O)N3C[C@@H](C)O[C@@H](C)C3)cc2OC)ncc1C#N [Example 319, 2-[4-((2R,6S)-2,6-Dimethyl-morpholine-4-carbonyl)-5-fluoro-2-methoxy-phenylamino]-4-ethylamino-pyrimidine-5-carbonitrile] | – | pKi (Table 7): 7.71 |
| COc1cc(C(=O)N2CCOCC2)ccc1Nc1ncc(C2CC2)c(OC)n1 [Example 182, (4-(5-cyclopropyl-4-methoxypyrimidin-2-ylamino)-3-methoxyphenyl) (morpholino) methanone] | 7.05 | – |
| CNc1nc(Nc2cc(OC)c(C(=O)N3CCOCC3)cc2Cl)ncc1Cl [Example 295, (5-chloro-4-(5-chloro-4-(methyl-amino)pyrimidin-2-ylamino)-2-methoxy-phenyl)(morpholino) methanone] | – | pKi (Table 6): 8.22 |
| CNc1nc(Nc2cc(OC)c(C(=O)NC3CCN(C)CC3)cc2Cl)ncc1C(F)(F)F [Example 173, 5-Chloro-2-methoxy-4-(4-methylamino-5-trifluoromethyl-pyrimidin-2-ylamino)-N-(1-methyl-piperidin-4-yl)-benzamide] | 8.82 | – |
| CNc1nc(Nc2cc(OC)c(C(=O)N3CCOC(CO)C3)cc2Cl)ncc1Cl (stereo not shown) [Example 162, [5-Chloro-4-(5-chloro-4-methylamino-pyrimidin-2-ylamino)-2-methoxy-phenyl]-(2-hydroxymethyl-morpholin-4-yl)-methanone] | 8.16 | – |
| CCNc1nc(Nc2ccc(C(=O)N(C)CCOC)cc2OC)ncc1C(F)(F)F [Example 302, 4-(4-Ethylamino-5-trifluoromethyl-pyrimidin-2-ylamino)-3-methoxy-N-(2-methoxy-ethyl)-N-methyl-benzamide] | – | pKi (Table 6): 8.64 |
| CNc1nc(Nc2cc(OC)c(C(=O)NCCO)cc2Cl)ncc1Cl [Example 142, 5-Chloro-4-(5-chloro-4-methylamino-pyrimidin-2-ylamino)-N-(2-hydroxy-ethyl)-2-methoxy-benzamide] | 7.96 | – |
| COc1cc(C(=O)N2CCOCC2)c(Cl)cc1Nc1ncc(C(F)(F)F)c(OC)n1 [Example 262, [2-Chloro-5-methoxy-4-(4-methoxy-5-trifluoromethyl-pyrimidin-2-ylamino)-phenyl]-morpholin-4-yl-methanone] | – | pKi (Table 5): 7.62 |
| CNc1nc(Nc2cc(Cl)c(C(=O)N3CCOCC3)cc2OC)ncc1Cl [Example 293, [2-Chloro-4-(5-chloro-4-methylamino-pyrimidin-2-ylamino)-5-methoxy-phenyl]-morpholin-4-yl-methanone] | – | pKi (Table 6): 8.57 |
| CNc1nc(Nc2cc(OC)c(C(=O)NC3COC3)cc2Cl)ncc1Cl [Example 153, 5-Chloro-4-(5-chloro-4-methylamino-pyrimidin-2-ylamino)-2-methoxy-N-oxetan-3-yl-benzamide] | 7.56 | – |
| CNc1nc(Nc2cc(OC)c(C(=O)NC3COC3)cc2Cl)ncc1C(F)(F)F [Example 174, 5-Chloro-2-methoxy-4-(4-methylamino-5-trifluoromethyl-pyrimidin-2-ylamino)-N-oxetan-3-yl-benzamide] | 8.39 | – |
| CNc1nc(Nc2ccc(C(=O)N3CCC(C#N)CC3)cc2OC)ncc1C(F)(F)F [Example 278, 1-[3-Methoxy-4-(4-methylamino-5-trifluoromethyl-pyrimidin-2-ylamino)-benzoyl]-piperidine-4-carbonitrile] | – | pKi (Table 6): 8.77 |
| CNc1nc(Nc2ccc(C(=O)N3CC4(COC4)C3)cc2OC2CCCC2)ncc1Cl [Example 188, [4-(5-Chloro-4-methylamino-pyrimidin-2-ylamino)-3-cyclopentyloxy-phenyl]-(2-oxa-6-aza-spiro[3.3]hept-6-yl)-methanone] | 8.20 | – |
| CNc1nc(Nc2cc(OC)c(C(N)=O)cc2Cl)ncc1Cl [Example 141, 5-Chloro-4-(5-chloro-4-methylamino-pyrimidin-2-ylamino)-2-methoxy-benzamide] | 8.03 | – |
| CNc1nc(Nc2cc(OC)c(C(=O)NC3(C#N)CC3)cc2Cl)ncc1C(F)(F)F [Example 265, 5-Chloro-N-(1-cyano-cyclopropyl)-2-methoxy-4-(4-methylamino-5-trifluoromethyl-pyrimidin-2-ylamino)-benzamide] | – | pKi (Table 6): 8.38 |
| CCNc1nc(Nc2cc(F)c(C(=O)N(CC)CCOC)cc2OC)ncc1C(F)(F)F [Example 307, N-Ethyl-4-(4-ethylamino-5-trifluoromethyl-pyrimidin-2-ylamino)-2-fluoro-5-methoxy-N-(2-methoxy-ethyl)-benzamide] | – | pKi (Table 6): 8.85 |
| CNC(=O)c1cc(Cl)c(Nc2ncc(Cl)c(NC)n2)cc1OC [Example 144, 5-Chloro-4-(5-chloro-4-methylamino-pyrimidin-2-ylamino)-2-methoxy-N-methyl-benzamide] | 7.95 | – |
| CCNc1nc(Nc2ccc(C(=O)N3CCOCC3)cc2OC(F)(F)F)ncc1C(F)(F)F [Example 312, (4-(4-(ethylamino)-5-(trifluoromethyl)pyrimidin-2-ylamino)-3-(trifluoromethoxy)phenyl)(morpholino) methanone] | – | pKi (Table 6): 7.55 |

Further lines, with some results ahead:

| pKi (Table 4) | SMILES | further results |
| --- | --- | --- |
| 8.38 | [2H]C1([2H])OC([2H])([2H])C([2H])([2H])N(C(=O)c2cc(Cl)c(Nc3ncc(C(F)(F)F)c(NC)n3)cc2OC)C1([2H])[2H] [Example 236, (5-chloro-2-methoxy-4-(4-(methylamino)-5-(trifluoromethyl)pyrimidin-2-ylamino)phenyl) (perdeuteromorpholino) methanone] | – |
| 7.92 | CNc1nc(Nc2ccc(C(=O)NCC(F)F)cc2OC)ncc1C#N [Example 205, 4-(5-Cyano-4-methylamino-pyrimidin-2-ylamino)-N-(2,2-difluoro-ethyl)-3-methoxy-benzamide] | – |
| 8.20 | CNc1nc(Nc2ccc(C(=O)N3CC4(COC4)C3)cc2OC)ncc1Cl [Example 190, [4-(5-Chloro-4-methylamino-pyrimidin-2-ylamino)-3-methoxy-phenyl]-(2-oxa-6-aza-spiro[3.3]hept-6-yl)-methanone] | – |
| 7.92 | COc1cc(C(=O)N2CCOCC2)ccc1Nc1ncc(Cl)c(N2CCCCC2)n1 [Example 254, (4-(5-chloro-4-(piperidin-1-yl)pyrimidin-2-ylamino)-3-methoxyphenyl) (morpholino) methanone] | – |
| 8.38 | CCOc1cc(C(=O)N2CCOCC2)ccc1Nc1ncc(C(F)(F)F)c(NC)n1 [Example 216, [3-Ethoxy-4-(4-methylamino-5-trifluoromethyl-pyrimidin-2-ylamino)-phenyl]-morpholin-4-yl-methanone] | – |
| 8.39 | COCCNc1nc(Nc2ccc(C(=O)N3CCOCC3)cc2OC)ncc1Br [Example 229, {4-[5-Bromo-4-(2-methoxy-ethylamino)-pyrimidin-2-ylamino]-3-methoxy-phenyl}-morpholin-4-yl-methanone] | – |
| 8.70 | CNc1nc(Nc2ccc(C(=O)N3CCOCC3)cc2OC2CC2)ncc1Cl [Example 217, [4-(5-Chloro-4-methylamino-pyrimidin-2-ylamino)-3-cyclopropoxy-phenyl]-morpholin-4-yl-methanone] | – |
